Laboratory results from PubChem BioAssay AID1645866 (Buhrlage Lab, Dana-Farber Cancer Institute and Novartis …, 2021).
Calls of active or inactive are those of the source.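 How the source made its calls: active means in confirmatory dose-response testing, peak deubiquitinase inhibition of 30% or more; inactive means the rest.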

Target: Ubiquitin carboxyl-terminal hydrolase 28 (Homo sapiens) (UniProt Q96RU2)
Assay: Concentration-response biochemical assay confirming initial hits as inhibitors of ubiquitin-specific protease 28 (AID 1645866)
Details: purified USP28, ubiquitin-rhodamine fluorescence, 30 min

Chain of Ubiquitin carboxyl-terminal hydrolase 28 (Homo sapiens) (Q96RU2 whole entry, looked up): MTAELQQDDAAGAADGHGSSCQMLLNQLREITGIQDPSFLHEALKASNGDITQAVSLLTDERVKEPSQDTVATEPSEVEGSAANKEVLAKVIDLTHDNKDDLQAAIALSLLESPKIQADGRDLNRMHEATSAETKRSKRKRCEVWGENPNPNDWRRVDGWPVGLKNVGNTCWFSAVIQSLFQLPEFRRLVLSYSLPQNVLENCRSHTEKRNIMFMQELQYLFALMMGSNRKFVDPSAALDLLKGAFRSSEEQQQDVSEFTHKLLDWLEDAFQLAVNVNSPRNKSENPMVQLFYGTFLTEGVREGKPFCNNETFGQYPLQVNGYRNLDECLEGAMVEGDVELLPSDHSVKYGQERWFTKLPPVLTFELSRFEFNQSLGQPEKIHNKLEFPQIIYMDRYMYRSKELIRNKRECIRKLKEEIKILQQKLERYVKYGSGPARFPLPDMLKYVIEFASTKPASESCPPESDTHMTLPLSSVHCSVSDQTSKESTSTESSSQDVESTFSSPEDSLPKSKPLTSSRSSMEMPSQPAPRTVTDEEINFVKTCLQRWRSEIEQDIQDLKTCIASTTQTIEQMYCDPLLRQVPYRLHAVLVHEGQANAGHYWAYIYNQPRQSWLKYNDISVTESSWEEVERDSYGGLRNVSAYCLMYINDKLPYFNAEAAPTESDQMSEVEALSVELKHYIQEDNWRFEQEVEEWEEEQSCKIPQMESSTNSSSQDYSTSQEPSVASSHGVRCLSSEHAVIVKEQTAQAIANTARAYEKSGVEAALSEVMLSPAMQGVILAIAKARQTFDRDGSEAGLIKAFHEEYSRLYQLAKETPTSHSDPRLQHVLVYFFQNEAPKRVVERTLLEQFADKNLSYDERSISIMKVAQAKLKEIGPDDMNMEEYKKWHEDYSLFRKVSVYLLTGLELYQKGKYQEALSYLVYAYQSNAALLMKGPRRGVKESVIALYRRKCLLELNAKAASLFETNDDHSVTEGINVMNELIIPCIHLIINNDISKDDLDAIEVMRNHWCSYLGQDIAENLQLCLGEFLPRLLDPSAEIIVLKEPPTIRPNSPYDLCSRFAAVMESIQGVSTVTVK

SMILES	IC50
CCn1c(SCc2cccc(C)c2)nnc1-c1cnccn1	22 µM
CC(OC(=O)CNC(=O)c1ccc(Br)cc1)C(=O)Nc1ccc2c(c1)OCCO2 (stereo not drawn)	25.8 µM
COc1ccc(CC(NC(C)=O)C(=O)NC2CCN(c3c(Cc4ccccc4)c(C)nc4ncnn34)CC2)cc1OC (stereo not drawn)	> 50 µM (inactive)
COc1ccc(C2/C(=C(\O)c3ccccc3)C(=O)C(=O)N2c2nc3ccc(F)cc3s2)cc1 (stereo not drawn)	21.6 µM
NC(=O)CCC(=O)N[C@H]1C[C@H]2CN(Cc3ccccc3)c3ccccc3CN2C1	> 50 µM (inactive)
Cc1nn(-c2ccc(Cl)cc2)c2[nH]c(=O)c(CNCC3CCCO3)cc12 (stereo not drawn)	> 50 µM (inactive)
O=C(NCc1ccc2c(c1)OCO2)c1nc(-c2ccccc2)n(-c2ccccc2)n1	> 50 µM (inactive)
CN(C(=O)c1cccc2cccnc12)c1nc2c(s1)CCc1occc1-2	26.9 µM
CCCn1c(=O)c(-c2ccc(C(=O)NCc3ccc(OC)cc3)cc2)nc2cccnc21	1.8 µM
Cc1nn(C)c2c1[C@@H](c1ccc(F)c(Br)c1)[C@H](NC(=O)c1ccccc1)C(=O)N2	3.79 µM
COCCCn1c(C(=O)NCCc2ccccc2)cc2c(=O)n3cccc(C)c3nc21	42.1 µM
O=C(Nc1ccc2c(c1)OCCO2)Nc1ccc2nc3n(c(=O)c2c1)CCCC3	15.1 µM
COc1ccccc1NC(=O)CSC1=NC2(CCCCC2)Nc2ccccc21	> 50 µM (inactive)
NC(=O)c1ccc(NC(=O)Cc2cc(-c3ccc(Cl)cc3)on2)cc1	> 50 µM (inactive)
O=C(COc1ccc2c(-c3ccccc3)cc(=O)oc2c1)Nc1cccnc1	2.54 µM
CC(=O)N1CCc2cc(S(=O)(=O)NCCC(=O)Nc3cccc(C)c3C)ccc21	34 µM
Cc1cc(C(=O)NC2(O)C(=O)c3ccccc3C2=O)n(C)n1	19 µM
Cc1ccccc1NC(=O)C(C)n1c(=O)cc(-c2ccccc2)c2c(C)nn(C)c21 (stereo not drawn)	7.75 µM
Cc1cc(NC(=O)COc2ccc3oc4ccccc4c3c2)no1	26.5 µM
CC(C)NS(=O)(=O)c1cccc2c(NC(=O)C(Cc3ccccc3)NC(=O)c3ccccc3)cccc12 (stereo not drawn)	> 50 µM (inactive)
Cc1c(C)c2ccc(OCC(=O)NCc3ccncc3)c(C)c2oc1=O	49.2 µM
Cc1cccc(NC(=O)Cn2c(-c3cnccn3)nc(C)c(C)c2=O)c1C	> 50 µM (inactive)
CS(=O)(=O)N1CCCc2cc(C(=O)Nc3ccc(Oc4ccccc4)cc3)ccc21	12.5 µM
CC1CCN(c2nc(F)c3c(c2F)S(=O)(=O)CCN3Cc2cccnc2)CC1	> 50 µM (inactive)

SMILES	IC50
CC1=CC(=O)C(C2=C(O)C(=O)C(C)=CC2=O)=C(O)C1=O	20.3 µM
COc1cc(NC(=O)COC(=O)Cn2cnc3ccccc32)cc(OC)c1	40 µM
Cc1ccc(Cn2nnc(-c3noc(-c4ccc[nH]4)n3)c2C)cc1	11.6 µM
COc1ccc(CCNC(=O)CCCCn2c(=O)c3ccccc3n(Cc3cccc(Cl)c3)c2=O)cc1OC	21.1 µM
Cc1ccc(-n2c(-c3ccccc3)cn3c4c(=O)[nH]c(=O)n(C)c4nc23)cc1Cl	0.305 µM
c1cnc(-c2n[nH]c(C3CCN(C4CCNC4)CC3)n2)cn1 (stereo not drawn)	> 50 µM (inactive)
Cc1ccc2[nH]c(=O)c(CN(CC3COCCO3)S(=O)(=O)c3ccc(F)cc3)cc2c1 (stereo not drawn)	13.5 µM
O=C1Nc2ccccc2C(=O)C1C(c1ccc(Cl)cc1)C1C(=O)Nc2ccccc2C1=O (stereo not drawn)	28.6 µM
CCOc1ccc(C2=NCCNC3=C2C(c2ccccc2)N(c2ccccc2)C3=O)cc1 (stereo not drawn)	> 50 µM (inactive)
CCC(=O)Nc1cccnc1-c1ccc(C(=O)Nc2cccc(OC)c2)cc1	14.5 µM
COc1cccc(NC(=O)c2ccc(F)cc2Cl)c1	18.7 µM
O=C(Cc1cc(-c2ccccc2)on1)NCc1c(F)cccc1F	29.1 µM
CSc1nc(Cc2ccc(Cl)cc2)nc2ccccc12	14 µM
O=C(Nc1ccccc1)c1cn2c3c(cccc3c1=O)CC2	31.9 µM
CC1CC[C@]2(NC1)O[C@H]1C[C@H]3[C@@H]4CC[C@H]5C[C@@H](O[C@@H]6O[C@H](CO)[C@H](O[C@@H]7O[C@H](CO)[C@@H](O)[C@H](O[C@@H]8OC[C@@H](O)[C@H](O)[C@H]8O)[C@H]7O[C@@H]7O[C@H](CO)[C@@H](O)[C@H](O)[C@H]7O)[C@H](O)[C@H]6O)CC[C@]5(C)[C@H]4CC[C@]3(C)[C@H]1[C@@H]2C (stereo partly drawn)	30.5 µM
Cc1ccccc1OCCSc1nc2ccccc2n1CC(=O)NC1CC1	20.7 µM
COc1ccc(C2CC(=O)Nc3n[nH]c(-c4ccccc4)c32)cc1OC (stereo not drawn)	33.7 µM
O=C(CSc1nc2cc(S(=O)(=O)Nc3ccccc3Cl)ccc2o1)Nc1ccc(N2CCOCC2)cc1	34.5 µM
O=C(Cn1cnc2ccccc21)Nc1ccc2c(c1)CCC2	28.7 µM
COc1ccc(C)cc1NC(=O)C1CC(=O)Nc2nc(SCc3ccccc3)nn21 (stereo not drawn)	14.7 µM
Cc1ccc(Cl)cc1NC(=O)COC(=O)c1ccc2ccccc2n1	> 50 µM (inactive)
O=C(Cc1noc2ccccc12)NCC(=O)Nc1ccc(Cl)cc1	18 µM
O=C(Nc1ccc2c(c1)OCCO2)c1cc(CN2CCOCC2)on1	11.9 µM
Cc1cc(CSc2ncccc2C(=O)Nc2ccnn2Cc2cccnc2)no1	> 50 µM (inactive)

Other lines, results leading:

IC50	SMILES
1.89 µM	CCOc1ccc(CCNC(=O)c2ccc3c(c2)N(CC)C(=O)c2ccccc2S3)cc1OCC
2.76 µM	COc1cc(Cn2cnc3c([nH]c4ccc(Br)cc43)c2=O)cc(OC)c1
48.7 µM	CC1=C(c2ccc(F)cc2)S(=O)(=O)NC1=NCC(=O)Nc1cccc(F)c1
> 50 µM (inactive)	CCOC(=O)C1CCN(C(=O)c2ccc3c(c2)NC(=O)C2CCCN32)CC1 (stereo not drawn)
14.3 µM	CCC[C@H]1O[C@@H]2CC(=O)O[C@@H]2C2=C1C(=O)c1c(O)cccc1C2=O
18.7 µM	CC(=O)c1sc(NC(=O)/C=C/c2ccccc2)nc1-c1ccccc1
0.674 µM	CC(=O)c1ccc(NC(=O)C2CCN(c3cncnc3N3CCCC3)CC2)cc1
21.9 µM	O=C(/C=C/c1ccco1)c1cccc([N+](=O)[O-])c1
46.6 µM	O=C(Cn1c(NCc2ccccc2)nc2ccccc21)NCC(F)(F)F
21.9 µM	O=C1CC(C(=O)Nc2ccccc2F)n2nc(-c3ccccc3)cc2N1 (stereo not drawn)
> 50 µM (inactive)	CN1CC2CN(C(=O)c3ccc(F)cc3)CCN2Cc2ccccc21 (stereo not drawn)
> 50 µM (inactive)	O=C(COC(=O)c1ccc2ncsc2c1)Nc1ccccc1F
> 50 µM (inactive)	Cc1cnc2nc3c(cc2c1)CN(CCc1ccc(Cl)cc1)CC3
19.1 µM	CC(=O)Nc1ccc(-n2cnc(C(=O)NCc3ccc(C)cc3)c2)nc1
> 50 µM (inactive)	COc1cccc(NC(=O)C2Cn3ccnc3C3(CCN(C(C)=O)CC3)O2)c1 (stereo not drawn)
0.436 µM	Cc1sc2ncnc(OCc3ccc(F)cc3Cl)c2c1C
1.83 µM	O=C(Cn1nc2c3c4c(sc3ncn2c1=O)CCCCC4)Nc1ccc(Cl)cc1F
2.55 µM	O=C(OCc1ccc(F)cc1)c1ccc2ccccc2n1
19.5 µM	COc1ccc(NC(=O)C2Oc3ccc(C)cc3NC2=O)cc1Cl (stereo not drawn)
4.31 µM	COc1ccccc1Nc1ncc(C(=O)NCCc2ccc(Cl)cc2)c2ccccc12
27.4 µM	COc1ccccc1NC(=O)c1cc(-c2ccccn2)nc2ccccc12
16.4 µM	CCCC1Cc2c(sc3nc(SCC)nc(N)c23)CO1 (stereo not drawn)
> 50 µM (inactive)	COc1ncccc1CN1CCn2c(Cn3cncn3)cnc2C1C (stereo not drawn)
21.4 µM	COc1ccc(/C=C/C(=O)Nc2cccc(S(=O)(=O)Nc3ccccc3Cl)c2)c(OC)c1
3.47 µM	COc1ccc(CCNC(=O)c2cc(C3CC3)nc3c2cnn3C(C)C)cc1
